The source made the active and inactive calls. No cut-off for these calls is given here.
Experiments:
PBMC [1] = assay: Immunomodulatory activity in human PBMC cells assessed as increase in LPS-induced MCP-1 level at 2 uM incubated for 18 hrs y flow cytometry analysis; assay type: functional, cell-based
In short: (§1)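 Peripheral blood mononuclear cells from human donors were isolated with Ficoll-Paque and plated in 48-well plates at 1 × 10^6 cells/mL, 500 μL per well. Cells received compounds at 2 μM or 0.1% DMSO together with LPS (10 ng/mL) and were kept for 18 h at 37 °C, 5% CO2. Cytokine levels in cell-free supernatants were measured by flow cytometry with the LEGENDplex Human Essential Immune Response Panel, using the kit's recombinant standard curves. Data come from four independent replicates analysed by two-way ANOVA with Tukey's test.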

PBMC [2] = assay: Immunomodulatory activity in human PBMC cells assessed as increase in LPS-induced TNF-alpha level at 2 uM incubated for 18 hrs y flow cytometry analysis; assay type: functional, cell-based
PBMC [3] = assay: Immunomodulatory activity in human PBMC cells assessed as increase in IL-2 level at 2 uM incubated for 18 hrs y flow cytometry analysis; assay type: functional, cell-based
In short: (§2)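 Human donor PBMCs (Ficoll-Paque; 1 × 10^6 cells/mL, 500 μL, 48-well plates) were treated with compounds at 2 μM or 0.1% DMSO vehicle without LPS for 18 h at 37 °C, 5% CO2. Cytokines in cell-free supernatants were quantified with the LEGENDplex Human Essential Immune Response Panel on a flow cytometer against kit recombinant standard curves. Four independent replicates; two-way ANOVA with Tukey's test.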

PBMC [4] = assay: Immunomodulatory activity in human PBMC cells assessed as increase in LPS-induced IFN-gamma level at 2 uM incubated for 18 hrs y flow cytometry analysis; assay type: functional, cell-based
PBMC [5] = assay: Immunomodulatory activity in human PBMC cells assessed as increase in MCP-1 level at 2 uM incubated for 18 hrs y flow cytometry analysis; assay type: functional, cell-based; in short: as §2
PBMC [6] = assay: Immunomodulatory activity in human PBMC cells assessed as increase in IL-1beta level at 2 uM incubated for 18 hrs y flow cytometry analysis; assay type: functional, cell-based; in short: as §2
PBMC [7] = assay: Immunomodulatory activity in human PBMC cells assessed as increase in IP-10 level at 2 uM incubated for 18 hrs y flow cytometry analysis; assay type: functional, cell-based; in short: as §2
PBMC [8] = assay: Immunomodulatory activity in human PBMC cells assessed as increase in LPS-induced IP-10 level at 2 uM incubated for 18 hrs y flow cytometry analysis; assay type: functional, cell-based; in short: as §1
[9] = Cytotoxicity against human PBMC cells at 10 uM incubated for 4 hrs; assay type: toxicity, cell-based
In short: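 Direct cytotoxicity was scored as the fraction of Sytox blue-positive cells among human PBMCs cultured without other cells. The PBMCs were exposed to compounds at 10 μM, with 0.1% DMSO as vehicle, alongside a K562 killing assay, then stained with Sytox blue dead cell stain and run on an Attune NxT flow cytometer, with analysis in FlowJo. Each condition was tested in duplicate across three independent biological replicates, and one-way ANOVA with Dunnett's test was applied.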

PBMC [10] = assay: Immunomodulatory activity in human PBMC cells assessed as increase in IL-8 level at 2 uM incubated for 18 hrs y flow cytometry analysis; assay type: functional, cell-based; in short: as §2
PBMC [11] = assay: Immunomodulatory activity in human PBMC cells assessed as increase in TGF-beta1 level at 2 uM incubated for 18 hrs y flow cytometry analysis; assay type: functional, cell-based; in short: as §2
PBMC [12] = assay: Immunomodulatory activity in human PBMC cells assessed as increase in LPS-induced IL-12p70 level at 2 uM incubated for 18 hrs y flow cytometry analysis; assay type: functional, cell-based
PBMC [13] = assay: Immunomodulatory activity in human PBMC cells assessed as increase in TNF-alpha level at 2 uM incubated for 18 hrs y flow cytometry analysis; assay type: functional, cell-based; in short: as §2
PBMC [14] = assay: Immunomodulatory activity in human PBMC cells assessed as increase in IL-17A level at 2 uM incubated for 18 hrs y flow cytometry analysis; assay type: functional, cell-based; in short: as §2
PBMC [15] = assay: Cytotoxicity against human PBMC cells co-cultured with human K562 cells at 10 uM incubated for 4 hrs; assay type: functional, cell-based
In short: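 Killing was scored as the share of K562 cells positive for both CFSE and Sytox blue. Human PBMCs were seeded in 96-well plates at 4 × 10^5 per well and pretreated for 18 h with compounds at 10 μM, with 0.1% DMSO as vehicle. CFSE-stained K562 cells were then added at 1 × 10^4 per well (effector:target 40:1) for 4 h at 37 °C, 5% CO2, before Sytox blue staining and reading on an Attune NxT flow cytometer. Assays ran in duplicate across three independent biological replicates and were analysed by one-way ANOVA with Dunnett's test.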

PBMC [16] = assay: Immunomodulatory activity in human PBMC cells assessed as increase in LPS-induced IL-6 level at 2 uM incubated for 18 hrs y flow cytometry analysis; assay type: functional, cell-based; in short: as §1
PBMC [17] = assay: Immunomodulatory activity in human PBMC cells assessed as increase in IFN-gamma level at 2 uM incubated for 18 hrs y flow cytometry analysis; assay type: functional, cell-based; in short: as §2
PBMC [18] = assay: Immunomodulatory activity in human PBMC cells assessed as increase in IL-6 level at 2 uM incubated for 18 hrs y flow cytometry analysis; assay type: functional, cell-based; in short: as §2
PBMC [19] = assay: Immunomodulatory activity in human PBMC cells assessed as increase in LPS-induced IL-1beta level at 2 uM incubated for 18 hrs y flow cytometry analysis; assay type: functional, cell-based
PBMC [20] = assay: Immunomodulatory activity in human PBMC cells assessed as increase in IL-12p70 level at 2 uM incubated for 18 hrs y flow cytometry analysis; assay type: functional, cell-based; in short: as §2
PBMC [21] = assay: Immunomodulatory activity in human PBMC cells assessed as increase in IL-4 level at 2 uM incubated for 18 hrs y flow cytometry analysis; assay type: functional, cell-based; in short: as §2
PBMC [22] = assay: Immunomodulatory activity in human PBMC cells assessed as increase in IL-10 level at 2 uM incubated for 18 hrs y flow cytometry analysis; assay type: functional, cell-based; in short: as §2
PBMC [23] = assay: Immunomodulatory activity in human PBMC cells assessed as increase in LPS-induced IL-10 level at 2 uM incubated for 18 hrs y flow cytometry analysis; assay type: functional, cell-based; in short: as §1
[24] = Cytotoxicity against human PBMC cells at 10 uM incubated for 4 hrs in presence of MDP; assay type: toxicity, cell-based
[25] = Cytotoxicity against human HEK-Blue hNOD2 cells assessed as metabolic activity at 10 uM incubated for 18 hes by MTT assay; assay type: toxicity, cell-based; conditions: hek-blue hnod2, 10 µM

CCCCCCCCCCCC(=O)Oc1ccc(/C=C/C(=O)NCC(=O)N[C@H](C(=O)N[C@H](CCC(=O)OCC)C(=O)OCC)C(C)C)cc1OC
Activity (PBMC [1]): Active | Activity (PBMC [2]): Active | Activity (PBMC [3]): Active | Activity (PBMC [4]): Active | Activity (PBMC [5]): Active | Activity (PBMC [6]): Active | Activity (PBMC [7]): Active | Activity (PBMC [8]): Active | Activity [9]: Non-toxic | Activity (PBMC [10]): Active | Activity (PBMC [11]): Active | Activity (PBMC [12]): Active | Activity (PBMC [13]): Active | Activity (PBMC [14]): Active | Activity (PBMC [15]): inactive | Activity (PBMC [16]): Active | Activity (PBMC [17]): Active | Activity (PBMC [18]): Active | Activity (PBMC [19]): Active | Activity (PBMC [20]): Active | Activity (PBMC [21]): Active | Activity (PBMC [22]): Active | Activity (PBMC [23]): Active

CCOC(=O)[C@@H](CCC(=O)NCCCNCCCCNCCCN)NC(=O)[C@@H](NC(=O)CNC(=O)/C=C/c1ccc(O)c(OC)c1)C(C)C
Activity (PBMC [1]): Active | Activity (PBMC [2]): Active | Activity (PBMC [3]): Active | Activity (PBMC [4]): Active | Activity (PBMC [5]): Active | Activity [24]: Non-toxic | Activity (PBMC [6]): Active | Activity (PBMC [7]): Active | Activity (PBMC [8]): Active | Activity [9]: Non-toxic | Activity (PBMC [10]): Active | Activity (PBMC [11]): Active | Activity (PBMC [12]): Active | Activity (PBMC [13]): Active | Activity (PBMC [14]): Active | Activity (PBMC [15]): inactive | Activity (PBMC [16]): Active | Activity (PBMC [17]): Active | Activity (PBMC [18]): Active | Activity (PBMC [19]): Active | Activity (PBMC [20]): Active | Activity [25]: Non-toxic | Activity (PBMC [21]): Active | Activity (PBMC [22]): Active | Activity (PBMC [23]): Active

Reference: ChEMBL document CHEMBL6120969, “Distinctive Immune Signatures Driven by Structural Alterations in Desmuramylpeptide NOD2 Agonists” (J Med Chem, 2024)
